According to US5476953A, “Biologically active amides containing a bicyclo moiety” (Cornell Research Foundation, Inc., priority 1994, dated 1995):
Several values for one entry are separate records, joined by “and”; a condition that tells them apart may be missing. Equal values may be shown once.

Tests used:
[1] = test system: HCT116 human colon carcinoma cells; test: In vitro cytotoxicity, crystal violet assay, HCT116 human colon carcinoma; format: cell-based; details: HCT-116, inhibition of cell proliferation to 50% of untreated control, 72 hours
Protocol: Methanolic extract, obtained on thawing about 1 g frozen sponge by immersion in 20 ml methanol, was assessed for in vitro cytotoxicity in HCT116 human colon carcinoma cells using the crystal violet assay as described in Catino, J. J., et al, Cancer Chemothr. Pharmacol. 15: 240-243, 1985. Particularly, cells were plated at 4000 cells/well in 96 well microtiter plates and 24 hours later samples were added and serial diluted. The cells were incubated at 37° C. for 72 hours. The media was then removed and the cells fixed for 10 minutes with 3.7% formaldehyde in 1 X phosphate buffered saline. The fixing solution was removed and the cells stained with a 0.0075% crystal violet solution for 15 minutes. The cells were then allowed to dry. Rough IC50 values (IC50 being the drug concentration required to inhibit cell proliferation to 50% of that of untreated control cells), expressed as a dilution factor from a 2 mg/ml starting concentration, were determined by visual examination, compared to untreated control wells.
Cytotoxicity was assessed for pure Icadamide A and for pure Icadamide B in an HCT116 human colon carcinoma cell line by the crystal violet assay described previously. […] The IC50 is the drug concentration required to inhibit cell proliferation to 50% of that of untreated control cells.

P388 mouse leukemia, ip = test: In vivo antitumor activity against ip implanted P388 mouse leukemia
Protocol: For evaluation of antitumor activity against P388 mouse leukemia cells, 1 X 10^6 P 388 leukemia cells were implanted in the intraperitoneal (ip) cavity of (BALB/c X DBA/2)F1 (CDF1) or (C57BL/6 X DBA/2)F1 (BDF1) mice according to the procedure as described in Rose, W. C., et al, Cancer Res. 43: 1504-1510 (1983). Icadamide B was dissolved in DMSO and diluted with saline to the desired concentrations. Injection of Icadamide B was by the ip route beginning on the first day after tumor implantation and consecutively every day for five treatments (q1dX5:1). Increases in lifespan were reflected by the median survival time of treated (T) versus control (C) groups for which a % T/C was calculated. A % T/C of ≥125% was considered an active result.

[2] = test system: M109 mouse lung tumor, ip; test: In vivo antitumor activity against ip implanted M109 mouse lung tumor; details: for MST % T/C: qd 1-5, ip, active ≥125%
Protocol: (§1) For evaluation of antitumor activity versus M109 mouse lung tumors, experiments were begun by implanting 0.5 ml of a 2.0% brei ip or 0.1 ml subcutaneously (sc) in CDF1 mice as described in Rose, W. C., Cancer Treat. Rep. 65: 299-312 (1981). Icadamide B was administered either intraperitoneally (ip), intravenously (iv) or subcutaneously (sc) by alzet pump according to dosage amounts and schedule set forth in Table IV below. Results are expressed as % T/C, i.e., percentage of median survival time of treated (T) versus control (C) groups. A % T/C of ≥125% was considered an active result. Results are also expressed in terms of tumor growth inhibition, particularly the median times for tumors in treated (T) mice to reach a 1 g size minus the median times for control (C) mice to reach a 1 g size, denoted T-C. Tumor weights were interchangeable with tumor size on the basis of 1 mm^3 =1 mg. The activity criterion for T-C is approximately equal to 4 days. Depending on the tumor volume doubling time for M109 tumors in control mice, this amount of delay in tumor growth is consistent with about one log of cell kill.

[3] = test system: M109 mouse lung tumor, sc; test: In vivo antitumor activity against sc implanted M109 mouse lung tumor; details: for MST % T/C: active ≥125%; for T-C: time to 1 g tumor, activity criterion approximately 4 days
Protocol: as §1

[4] = test system: asbestos-induced pulmonary squamous cell carcinoma (ASB), ip; test: In vivo antitumor activity against ip implanted asbestos-induced pulmonary squamous cell carcinoma (ASB); design: species or system mouse
Protocol: (§2) For evaluation of antitumor activity versus the asbestos-induced pulmonary squamous cell carcinoma (ASB), CDF1 mice were implanted either intraperitoneally (ip) or subcutaneously (sc) with 0.5 ml or 0.1 ml of a 2% brei, respectively. […] Results were evaluated on the same basis as described above for M109 mouse lung tumors except that the activity criterion for tumor growth inhibition was a T-C of ≥6 days.

[5] = test system: asbestos-induced pulmonary squamous cell carcinoma (ASB), sc; test: In vivo antitumor activity against sc implanted asbestos-induced pulmonary squamous cell carcinoma (ASB); design: species or system mouse
Protocol: as §2

[6] = a) 0.020 mg/kg/inj, d. 1, 4 & 7, iv
[7] = b) 0.128 mg/kg/inj, d. 1, 3, 5, 7 & 9, iv
[8] = e) 0.032-0.0537 mg/kg daily, qd 4-10, subcutaneously implanted Alzet pump (scap)

Compound `C=C1CC(OC)(C(O)C(=O)NC2OCOC3C2OC(CC(O)/C=C/C/C=C/C=C/C(=O)NC(CCCNC(=N)N)C(=O)O)C(C)(C)C3OC)OC(C)C1C` (centres unmarked) [Icadamide A] has an IC50 [1] of 63 nM.
With `C=C1CC(OC)(C(O)C(=O)NC2OCOC3C2OC(CC(O)/C=C/CCCCCCO)C(C)(C)C3OC)OC(C)C1C` (centres unmarked) [Icadamide B] the IC50 [1] was 0.17 nM, the “MST % T/C” value (P388 mouse leukemia, ip; 0.016 mg/kg/inj, qd 1-5, ip; two separate experiments a) and b), active ≥125%) was 181% and 143% and the “activity (in words)” value (P388 mouse leukemia, ip; ip implanted P388) was “good activity”. For the same compound, the increase in lifespan (P388 mouse leukemia, ip; maximally tolerated dose, ip, two separate experiments) was 43% and 81%, the “MST % T/C” value ([2]; a) 0.016 mg/kg/inj) was 163% and the “MST % T/C” value ([2]; b) 0.008 mg/kg/inj) was 150%. For the same compound, the “activity (in words)” value ([2]; ip implanted M109) was “good activity”, the “increase in lifespan” value ([2]; maximally tolerated doses, ip) was 63% and 50% and the “MST % T/C” value [3, 6] was 135%. For the same compound, the T-C [3, 6] was -0.3 days, the “MST % T/C” value [3, 7] was 97% and the T-C [3, 7] was 0 days. For the same compound, the “MST % T/C” value ([3]; c) 0.016 mg/kg/inj, qd 4-8, iv) was 119%, the T-C ([3]; c) 0.016 mg/kg/inj, qd 4-8, iv) was 0.3 days and the “MST % T/C” value ([3]; d) 0.013 mg/kg/inj, qd 4-8, ip) was 109%. For the same compound, the T-C ([3]; d) 0.013 mg/kg/inj, qd 4-8, ip) was 2.5 days, the “MST % T/C” value [3, 8] was 102% and the T-C [3, 8] was 3.3 days. The “increase in lifespan (in words)” value ([3]; sc implanted M109) was “marginal increases in lifespan”, the “tumor growth delay (in words)” value ([3]; sc implanted M109) was “negligible tumor growth delays” and the “MST % T/C” value ([4]; 0.008 mg/kg/inj, qd 4-8, ip, active ≥125%) was 121%. The “activity (in words)” value ([4]; ip implanted ASB) was “poor activity”, the “MST % T/C” value ([5]; 0.032/0.128 mg/kg/inj, qd 4-8, iv, active ≥125%) was 129% and the T-C ([5]; 0.032/0.128 mg/kg/inj, qd 4-8, iv, time to 1 g tumor, activity criterion ≥6 days) was 3.0 days and 3 days. For the same compound, the “distal site activity (in words)” value ([5]; sc implanted ASB) was “little distal site activity”.
